According to publication PMC5742531, “Bio-Catalytic Structural Transformation of Anti-cancer Steroid, Drostanolone Enanthate with Cephalosporium aphidicola and Fusarium lini, and Cytotoxic Potential Evaluation of Its Metabolites against Certain Cancer Cell Lines” (Frontiers in Pharmacology, 2017):
Like-named read-outs stand apart in the source and are kept apart here.

Legend:
[1] = tested on: NCl-H460 (human lung carcinoma ATCC HTB-177); experiment: MTT cytotoxicity assay, H460 cell line; type: cell-based; details: H460 cells, read-out: H460 cell line (Lung cancer) IC50 ± SD
Procedure: (§1) The cytotoxicity of samples was measured against HeLa (human cervical carcinoma ATCC CCl-2), PC-3 (human prostate cancer ATCC CRL-1435), NCl-H460 (human lung carcinoma ATCC HTB-177), HCT116 (human colon cancer ATCC CCl-247), and 3T3 (control fibroblast normal ATCC CRL-1658) cell lines by using standard MTT assay. Cell lines were grown in DMEM F12 media, supplemented with 10% FBS under a 5% CO2 atmosphere at 37°C in an incubator.
(§2) The colorimetric assay MTT [3-(4, 5-dimethyl thiazol-2yl)-2, 5-diphenyl tetrazolium bromide] was used for the evaluation of cell metabolic activity. In this assay, the yellow MTT is reduced to purple formazon in the mitochondria of the living cells (Gerlier and Thomasset, [1986]). The more the living cells, the more the color and thus more absorbance is observed by colorimeter (Fesahat et al., [2015]). We have used this method to analyze the effect of our transformed products on cellular cytotoxicity against cancer cells. Around 10,000 cells of each cell line (HeLa, PC3, H460, HCT116 cancers, and 3T3 normal) were seeded in 96-well plates. After reaching 80–90% confluency, they were treated with various concentrations of compounds (25, 50, 75, 100, and 200 μM) for 24 h. All compounds were dissolved in sterile DMSO to make a 200 mM stock solution. The solution was filtered, and serial dilutions were made in growth medium. 600 μL of each dilution was used to treat 3 wells (triplicate of each) of 96 well plate i.e., 200 μL each. Each experiment was performed in three biological replicates. MTT was added, and incubated for 4 h. […] The Multiskan reader gives λmax at 540 nm in DMSO treated 3T3 fibroblast cells (that are more confluent in morphology) whereas in case of cancer cells, 570 nm gives λmax (Bonmati-Carrion et al., [2013]; Danihelová et al., [2013]). A broad range of epithelial carcinoma cell lines were used in this experiment where cisplatin was a common drug of choice. It targets DNA, interferes with cell division during mitosis and induces apoptosis (Eastman, [1999]). IC50 values were calculated to determine the minimum concentration required to kill 50% of the cells.
(§3) % Inhibition=100-(At-Ab)/(Ac-Ab) ×100% Cell survival=(At-Ab)/(Ac-Ab) ×100

[2] = tested on: HeLa (human cervical carcinoma ATCC CCl-2); experiment: MTT cytotoxicity assay, HeLa cell line; type: cell-based; details: 24 h treatment, HeLa cells, read-out: HeLa cell line (Cervical cancer) IC50 ± SD
Procedure: as §1, §2, §3

[3] = tested on: HCT116 (human colon cancer ATCC CCl-247); experiment: MTT cytotoxicity assay, HCT116 cell line; type: cell-based; details: HCT116 cells, read-out: HCT116 cell line (Colon cancer) IC50 ± SD
Procedure: as §1, §2, §3

[4] = tested on: PC-3 (human prostate cancer ATCC CRL-1435); experiment: MTT cytotoxicity assay, PC-3 cell line; type: cell-based; details: 24 h treatment, PC3 cells, read-out: PC3 cell line (Prostate cancer) IC50 ± SD
Procedure: as §1, §2, §3

[5] = tested on: 3T3 (control fibroblast normal ATCC CRL-1658); experiment: MTT cytotoxicity assay, 3T3 normal cell line; type: cell-based; details: 3T3 normal cells, read-out: 3T3 cell line (Mouse fibroblast) IC50 ± SD
Procedure: as §1, §2, §3

[6] = Homo sapiens, NCI-H460, 24 h treatment
[7] = Homo sapiens, HCT-116, 24 h treatment
[8] = Mus musculus, NIH3T3, 24 h treatment

SMILES	IC50 [1, 6] [µM]	IC50 ([2]; Homo sapiens) [µM]	IC50 [3, 7] [µM]	IC50 ([4]; Homo sapiens, PC-3, 24 h) [µM]	IC50 [5, 8] [µM]	melting point [°C]	IC50 ([1]; 24 h treatment) [µM]	IC50 [2] [µM]	IC50 ([3]; 24 h treatment) [µM]	IC50 [4] [µM]	IC50 ([5]; 24 h treatment) [µM]
CCCCCCC(=O)OC1CCC2C3CCC4CC(=O)C(C)CC4(C)C3CCC12C (centres unmarked) [Compound 1, drostanolone enanthate]	5 ± 1.2	54.7 ± 1.6	3.1 ± 3.2	96.2 ± 3	> 150						
CC1=C[C@@]2(C)C(=CC1=O)CC[C@@H]1[C@@H]2CC[C@]2(C)C(=O)CC[C@@H]12 [Compound 5, 2-methylandrosta-1,4-diene-3,17-dione]		39.8 ± 1.5	30.4 ± 1.6	84 ± 3.1	> 150	198 to 202					
CC1=C[C@@]2(C)C(=CC1=O)CC[C@@H]1[C@@H]2CC[C@]2(C)C(=O)CC[C@@]12O [Compound 7, 2-methylandrosta-14α-hydroxy-1,4-diene-3,17-dione]	38.5 ± 2.8	43.9 ± 2.4	46.6 ± 3	59.1 ± 2.6	> 150	224 to 228					
N.N.[Cl][Pt][Cl] [cisplatin, reference compound]							22.2 ± 2.1	40.1 ± 2	11.2 ± 3.03	76.5 ± 1.2	42.7 ± 0.8
C[C@@H]1C[C@@]2(C)[C@@H](CC[C@@H]3[C@@H]2CC[C@]2(C)[C@@H](O)CC[C@@H]32)C[C@@H]1O [Compound 4, 2α-methyl-3α,17β-dihydroxy-5α-androstane]	12.4 ± 2.3	49.5 ± 2.2	80.9 ± 1.6	60.4 ± 0.9	> 150	242 to 245					
C[C@@H]1C[C@@]2(C)[C@H](CC1=O)C[C@@H](O)[C@@H]1[C@@H]2CC[C@]2(C)C(=O)CC[C@@H]12 [Compound 3, 2α-methyl-7α-hydroxy-5α-androstan-3,17-dione]	16.7 ± 2.6	58 ± 1	42.8 ± 1.2	68 ± 1.2	> 150	230 to 234				68.1 ± 1.2	
CC1=C[C@@]2(C)[C@H](CC1=O)C[C@@H](O)[C@@H]1[C@@H]2CC[C@]2(C)C(=O)CC[C@@H]12 [Compound 8, 2-methylandrosta-7α-hydroxy-1-ene-3,17-dione]	26.4 ± 0.9	19.6 ± 1.4	55 ± 1.9	51.8 ± 3.4	74.6 ± 3.7	250 to 256					
C[C@@H]1C[C@@]2(C)[C@@H](CC[C@@H]3[C@@H]2CC[C@]2(C)[C@@H](O)CC[C@@H]32)CC1=O [Compound 9, 2α -methyl-5α-androstane-17β-hydroxy-3-one]	31.8 ± 1.2	25.1 ± 1.6	2.8 ± 0.2	57.8 ± 3.2	62.1 ± 1.2						
CC1=C[C@@]2(C)C(=CC1=O)CC[C@@H]1[C@@H]2[C@H](O)C[C@]2(C)C(=O)CC[C@@H]12 [Compound 6, 2-methylandrosta-11α-hydroxy-1,4-diene-3,17-dione]	33.2 ± 1	40.7 ± 0.9	45.9 ± 4.2	58.4 ± 1.6	> 150	230 to 234					
C[C@@H]1C[C@@]2(C)[C@@H](CC[C@@H]3[C@@H]2CC[C@]2(C)[C@@H](O)CC[C@@]32O)C[C@@H]1O [Compound 2, 2α-methyl-3α,14α,17β-trihydroxy-5α-androstane]	44.4 ± 2	64.3 ± 3	39.4 ± 2	84.6 ± 6.4	> 150						
